Reference: patent US20110230476A1, “PI3 KINASE INHIBITORS AND USES THEREOF” (AVILA THERAPEUTICS, INC., priority 2009, published 2011)

biological target: T1, PI3Kα (p110α/p85α) (Homo sapiens, UniProt P42336); assay: HTRF assay, potency against active PI3Kα; format: biochemical; settings: HTRF; [ATP]=50 μM, [di-C8-PIP2]=10 μM; 30 min pre-incubation; read-out: PI3Kα Inhibition
T1 construct: purchased BPS Bioscience (San Diego, Calif.) or Millipore (Billerica, Mass.)
Protocol: Homogeneous Time Resolved Fluorescence (HTRF) Assay Protocol for Potency Assessment Against the Active Forms of PI3Kα, PI3Kβ, and PI3Kγ
The mechanics of the assay platform are best described by the vendor (Millipore, Billerica, Mass.) on their website at the following URL: www.millipore.com/coa/tech1/74jt4z.
Briefly, Stop solution (Stop A, #33-007 and Stop B, #33-009; 3:1 ratio) and Detection Mix (from DMC, #33-015 with DMA, #33-011 and DMB, #33-013; 18:1:1 ratio) were prepared as recommended by the manufacturer about 2 hrs prior to use. […] Lipid kinase reactions were started with the addition of 5 μL of ATP solution, mixed for 15 sec on a rotary plate shaker and incubated for 30-60 minutes at 25° C. Next, reactions were stopped with a 5 μL addition of Stop solution immediately followed by a 5 μL volume of Detection Mix. […] At the conclusion of each assay, the HTRF ratio from fluorescence emission values for each well was calculated and % Inhibition determined from averaged controls wells (+/−PI3K enzyme). % Inhibition values for each compound were then plotted against inhibitor concentration to estimate IC50 from log [Inhibitor] vs Response, Variable Slope model in GraphPad Prism from GraphPad Software (San Diego, Calif.).

T1 sequence (P42336 whole entry): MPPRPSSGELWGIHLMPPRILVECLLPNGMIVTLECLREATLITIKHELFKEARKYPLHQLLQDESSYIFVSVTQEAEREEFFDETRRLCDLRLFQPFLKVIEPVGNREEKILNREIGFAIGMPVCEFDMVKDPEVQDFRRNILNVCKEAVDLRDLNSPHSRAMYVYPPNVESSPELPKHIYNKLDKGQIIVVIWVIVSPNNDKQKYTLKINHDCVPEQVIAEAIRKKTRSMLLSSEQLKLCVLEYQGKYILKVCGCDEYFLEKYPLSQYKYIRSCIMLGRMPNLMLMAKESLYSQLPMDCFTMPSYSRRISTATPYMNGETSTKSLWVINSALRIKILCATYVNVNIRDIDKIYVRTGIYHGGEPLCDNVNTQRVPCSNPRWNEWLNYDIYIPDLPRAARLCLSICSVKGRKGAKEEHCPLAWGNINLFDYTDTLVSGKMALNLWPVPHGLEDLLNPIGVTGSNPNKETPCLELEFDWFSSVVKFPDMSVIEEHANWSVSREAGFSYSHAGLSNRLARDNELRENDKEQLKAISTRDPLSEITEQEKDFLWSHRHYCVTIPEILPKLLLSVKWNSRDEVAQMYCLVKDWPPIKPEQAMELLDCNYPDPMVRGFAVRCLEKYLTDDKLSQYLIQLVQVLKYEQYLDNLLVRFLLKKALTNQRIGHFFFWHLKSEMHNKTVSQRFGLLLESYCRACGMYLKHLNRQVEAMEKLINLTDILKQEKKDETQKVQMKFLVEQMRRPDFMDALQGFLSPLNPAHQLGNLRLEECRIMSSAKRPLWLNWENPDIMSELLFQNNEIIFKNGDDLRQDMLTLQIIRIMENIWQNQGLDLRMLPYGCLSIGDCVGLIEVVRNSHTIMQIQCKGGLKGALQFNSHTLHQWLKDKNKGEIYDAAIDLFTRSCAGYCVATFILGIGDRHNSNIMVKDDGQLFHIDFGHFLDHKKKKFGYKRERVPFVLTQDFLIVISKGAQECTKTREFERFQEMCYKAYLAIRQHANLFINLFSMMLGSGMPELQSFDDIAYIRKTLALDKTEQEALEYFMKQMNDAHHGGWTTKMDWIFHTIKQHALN
T1 sequence (P27986 whole entry partner): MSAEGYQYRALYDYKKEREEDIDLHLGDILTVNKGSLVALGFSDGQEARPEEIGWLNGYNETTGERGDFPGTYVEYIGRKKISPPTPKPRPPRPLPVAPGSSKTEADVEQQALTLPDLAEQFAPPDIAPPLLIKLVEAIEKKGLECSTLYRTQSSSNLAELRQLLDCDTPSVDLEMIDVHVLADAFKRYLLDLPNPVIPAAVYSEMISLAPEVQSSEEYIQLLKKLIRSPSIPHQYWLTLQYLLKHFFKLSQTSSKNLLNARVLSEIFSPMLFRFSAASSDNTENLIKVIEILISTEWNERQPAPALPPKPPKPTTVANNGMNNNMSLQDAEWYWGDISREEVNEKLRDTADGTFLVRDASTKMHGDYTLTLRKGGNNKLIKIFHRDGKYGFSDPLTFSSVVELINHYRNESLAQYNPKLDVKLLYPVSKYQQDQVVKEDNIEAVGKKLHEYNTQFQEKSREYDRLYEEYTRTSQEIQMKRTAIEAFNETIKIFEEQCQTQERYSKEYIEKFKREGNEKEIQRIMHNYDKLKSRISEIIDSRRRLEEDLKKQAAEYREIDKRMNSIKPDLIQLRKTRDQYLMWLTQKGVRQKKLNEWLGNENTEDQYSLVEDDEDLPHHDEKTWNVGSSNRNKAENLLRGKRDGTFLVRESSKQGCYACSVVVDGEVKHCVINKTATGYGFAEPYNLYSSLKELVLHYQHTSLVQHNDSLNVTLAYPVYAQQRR

IC50, 100 to 1000 nM:
C=CC(=O)NCc1ccc(-c2cc3nc(-c4cccc5[nH]ncc45)nc(N4CCOCC4)c3s2)cc1 [II-a-107, N-(4-(2-(1H-indazol-4-yl)-4-morpholinothieno[3,2-d]pyrimidin-6-yl)benzyl)acrylamide]
C=CC(=O)NC1CCN(c2ccc(-c3cc4nc(-c5cccc6[nH]ncc56)nc(N5CCOCC5)c4s3)cc2)CC1 [II-a-110, N-(1-(4-(2-(1H-indazol-4-yl)-4-morpholinothieno[3,2-d]pyrimidin-6-yl)phenyl)piperidin-4-yl)acrylamide]
C/C=C/C(=O)CCC(=O)N1CCN(Cc2cc3nc(-c4ccnc5[nH]ccc45)nc(N4CCOCC4)c3s2)CC1 [II-a-114, (E)-1-(4-((4-morpholino-2-(1H-pyrrolo[2,3-b]pyridin-4-yl)thieno[3,2-d]pyrimidin-6-yl)methyl)piperazin-1-yl)hept-5-ene-1,4-dione]
C=CC(=O)N1CCC2(CC1)CCN(C(=O)c1cc3nc(-c4cccc(O)c4)nc(N4CCOCC4)c3s1)CC2 [II-a-119, 1-(9-(2-(3-hydroxyphenyl)-4-morpholinothieno[3,2-d]pyrimidine-6-carbonyl)-3,9-diazaspiro[5.5]undecan-3-yl)prop-2-en-1-one]
C=CC(=O)N1CCC(N2CCN(C(=O)c3cc4nc(-c5cccc(O)c5)nc(N5CCOCC5)c4s3)CC2)CC1 [II-a-120, 1-(4-(4-(2-(3-hydroxyphenyl)-4-morpholinothieno[3,2-d]pyrimidine-6-carbonyl)piperazin-1-yl)piperidin-1-yl)prop-2-en-1-one]
C=CC(=O)NCC(=O)N1CCc2cc(-c3cc4nc(-c5cccc(O)c5)nc(N5CCOCC5)c4s3)ccc2C1 [II-a-121, N-(2-(6-(2-(3-hydroxyphenyl)-4-morpholinothieno[3,2-d]pyrimidin-6-yl)-3,4-dihydroisoquinolin-2(1H)-yl)-2-oxoethyl)acrylamide]
C=CC(=O)NCC(=O)N1CCCc2cccc(-c3cc4nc(-c5cccc(O)c5)nc(N5CCOCC5)c4s3)c21 [II-a-124, N-(2-(8-(2-(3-hydroxyphenyl)-4-morpholinothieno[3,2-d]pyrimidin-6-yl)-3,4-dihydroquinolin-1(2H)-yl)-2-oxoethyl)acrylamide]
O=C(/C=C/c1ncc[nH]1)CCC(=O)N1CCN(Cc2cc3nc(-c4cccc5[nH]ncc45)nc(N4CCOCC4)c3s2)CC1 [II-a-125, (E)-1-(4-((2-(1H-indazol-4-yl)-4-morpholinothieno[3,2-d]pyrimidin-6-yl)methyl)piperazin-1-yl)-6-(1H-imidazol-2-yl)hex-5-ene-1,4-dione]
C=CC(=O)NCC(=O)NCc1ccc(-c2cc3nc(-c4cccc5[nH]ncc45)nc(N4CCOCC4)c3s2)cc1 [II-a-128, N-(2-(4-(2-(1H-indazol-4-yl)-4-morpholinothieno[3,2-d]pyrimidin-6-yl)benzylamino)-2-oxoethyl)acrylamide]
Cn1ccnc1/C=C/C(=O)CCC(=O)N1CCN(Cc2cc3nc(-c4cccc5[nH]ncc45)nc(N4CCOCC4)c3s2)CC1 [II-a-129, (E)-1-(4-((2-(1H-indazol-4-yl)-4-morpholinothieno[3,2-d]pyrimidin-6-yl)methyl)piperazin-1-yl)-6-(1-methyl-1H-imidazol-2-yl)hex-5-ene-1,4-dione]
CC(C)(C)/C=C/C(=O)CCC(=O)N1CCN(Cc2cc3nc(-c4cccc5[nH]ncc45)nc(N4CCOCC4)c3s2)CC1 [II-a-131, (E)-1-(4-((2-(1H-indazol-4-yl)-4-morpholinothieno[3,2-d]pyrimidin-6-yl)methyl)piperazin-1-yl)-7,7-dimethyloct-5-ene-1,4-dione]
C=CC(=O)NCC(=O)N1CCC(O)(c2cc3nc(-c4cccc5[nH]ncc45)nc(N4CCOCC4)c3s2)CC1 [II-a-134, N-(2-(4-(2-(1H-indazol-4-yl)-4-morpholinothieno[3,2-d]pyrimidin-6-yl)-4-hydroxypiperidin-1-yl)-2-oxoethyl)acrylamide]
O=C(/C=C/c1ccccc1)CCC(=O)N1CC=C(c2cc3nc(-c4cccc5[nH]ncc45)nc(N4CCOCC4)c3s2)CC1 [II-a-135, (E)-1-(4-(2-(1H-indazol-4-yl)-4-morpholinothieno[3,2-d]pyrimidin-6-yl)-5,6-dihydropyridin-1(2H)-yl)-6-phenylhex-5-ene-1,4-dione]
O=C(/C=C/c1ccccc1)CCC(=O)N1CCC(O)(c2cc3nc(-c4cccc5[nH]ncc45)nc(N4CCOCC4)c3s2)CC1 [II-a-136, (E)-1-(4-(2-(1H-indazol-4-yl)-4-morpholinothieno[3,2-d]pyrimidin-6-yl)-4-hydroxypiperidin-1-yl)-6-phenylhex-5-ene-1,4-dione]
O=C(CCl)N1CCN(Cc2cc3nc(-c4cccc5[nH]ncc45)nc(N4CCOCC4)c3s2)CC1 [II-a-145, 1-(4-((2-(1H-indazol-4-yl)-4-morpholinothieno[3,2-d]pyrimidin-6-yl)methyl)piperazin-1-yl)-2-chloroethanone]
C=CC(=O)NOCC(=O)N1CCN(Cc2cc3nc(-c4cccc5[nH]ncc45)nc(N4CCOCC4)c3s2)CC1 [II-a-147, N-(2-(4-((2-(1H-indazol-4-yl)-4-morpholinothieno[3,2-d]pyrimidin-6-yl)methyl)piperazin-1-yl)-2-oxoethoxy)acrylamide]
C/C=C(\C)C(=O)CCC(=O)N1CCN(Cc2cc3nc(-c4cccc5[nH]ncc45)nc(N4CCOCC4)c3s2)CC1 [II-a-149, (E)-1-(4-((2-(1H-indazol-4-yl)-4-morpholinothieno[3,2-d]pyrimidin-6-yl)methyl)piperazin-1-yl)-5-methylhept-5-ene-1,4-dione]
C=CC(=O)NCC12CCC(c3cc4nc(-c5cccc6[nH]ncc56)nc(N5CCOCC5)c4s3)(CC1)OC2 [II-a-153, N-((1-(2-(1H-indazol-4-yl)-4-morpholinothieno[3,2-d]pyrimidin-6-yl)-2-oxabicyclo[2.2.2]octan-4-yl)methyl)acrylamide]

IC50, > 1000 nM:
O=C(C=C1COC1)CCC(=O)N1CCN(Cc2cc3nc(-c4cccc5[nH]ncc45)nc(N4CCOCC4)c3s2)CC1 [II-a-113, 1-(4-((2-(1H-indazol-4-yl)-4-morpholinothieno[3,2-d]pyrimidin-6-yl)methyl)piperazin-1-yl)-5-(oxetan-3-ylidene)pentane-1,4-dione]
C/C=C/C(=O)OCC(=O)N1CCN(Cc2cc3nc(-c4cccc5[nH]ncc45)nc(N4CCOCC4)c3s2)CC1 [II-a-146, (E)-2-(4-((2-(1H-indazol-4-yl)-4-morpholinothieno[3,2-d]pyrimidin-6-yl)methyl)piperazin-1-yl)-2-oxoethyl but-2-enoate]
C=CC(=O)Nc1ccc(CCNC(=O)c2cc3nc(-c4cccc5[nH]ncc45)nc(N4CC5(COC5)C4)c3s2)cc1 [II-a-151, N-(4-acrylamidophenethyl)-2-(1H-indazol-4-yl)-4-(2-oxa-6-azaspiro[3.3]heptan-6-yl)thieno[3,2-d]pyrimidine-6-carboxamide]

IC50, < 10 nM:
C/C=C/C(=O)CCC(=O)N1CCc2cc(-c3cc4nc(-c5cccc(O)c5)nc(N5CCOCC5)c4s3)ccc2C1 [II-a-108, (E)-1-(6-(2-(3-hydroxyphenyl)-4-morpholinothieno[3,2-d]pyrimidin-6-yl)-3,4-dihydroisoquinolin-2(1H)-yl)hept-5-ene-1,4-dione]
C/C=C/C(=O)CCC(=O)NC1CCN(c2ccc(-c3cc4nc(-c5cccc(O)c5)nc(N5CCOCC5)c4s3)cc2)CC1 [II-a-109, (E)-N-(1-(4-(2-(3-hydroxyphenyl)-4-morpholinothieno[3,2-d]pyrimidin-6-yl)phenyl)piperidin-4-yl)-4-oxohept-5-enamide]

IC50, 10 to 100 nM:
C=CC(=O)N1CCc2ccc(-c3cc4nc(-c5cccc(O)c5)nc(N5CCOCC5)c4s3)cc2C1 [II-a-106, 1-(7-(2-(3-hydroxyphenyl)-4-morpholinothieno[3,2-d]pyrimidin-6-yl)-3,4-dihydroisoquinolin-2(1H)-yl)prop-2-en-1-one]
C=CC(=O)N1CCC(O)(CCc2cc3nc(-c4cccc(O)c4)nc(N4CCOCC4)c3s2)CC1 [II-a-111, 1-(4-hydroxy-4-(2-(2-(3-hydroxyphenyl)-4-morpholinothieno[3,2-d]pyrimidin-6-yl)ethyl)piperidin-1-yl)prop-2-en-1-one]
CN(C)C/C=C/C(=O)NC1CCN(c2ccc(-c3cc4nc(-c5cccc(O)c5)nc(N5CCOCC5)c4s3)cc2)CC1 [II-a-150, (E)-4-(dimethylamino)-N-(1-(4-(2-(3-hydroxyphenyl)-4-morpholinothieno[3,2-d]pyrimidin-6-yl)phenyl)piperidin-4-yl)but-2-enamide]
C=CC(=O)Nc1ccc(C(=O)N2CC=C(c3cc4nc(-c5cccc(O)c5)nc(N5CCOCC5)c4s3)CC2)cc1OCCCN [II-a-155, N-(2-(3-aminopropoxy)-4-(4-(2-(3-hydroxyphenyl)-4-morpholinothieno[3,2-d]pyrimidin-6-yl)-1,2,3,6-tetrahydropyridine-1-carbonyl)phenyl)acrylamide]
